Active and inactive are the calls of the source.
How the values were obtained:
[1] = molecular target: Voltage-dependent T-type calcium channel subunit alpha-1H (Homo sapiens, UniProt O95180); format: functional;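 note: channel activity triggered by adding a high calcium stimulation buffer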
[2] = molecular target: T1, Endoribonuclease toxin MazF (Escherichia coli K-12, UniProt P0AE70); assay: fluorescent RNA oligo signal without MazF, dose response, counter-screen for MazEF activator project, biochemical, fluorescence, single-stranded RNase substrate (AID 588502); format: functional
T1 sequence (P0AE70 whole entry): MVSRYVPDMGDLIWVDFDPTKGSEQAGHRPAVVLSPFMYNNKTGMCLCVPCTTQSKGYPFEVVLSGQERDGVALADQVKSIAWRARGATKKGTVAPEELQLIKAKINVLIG

[3] = molecular target: T1, Endoribonuclease toxin MazF; assay: MazF toxin RNase activators, dose response, biochemical, fluorescence, single-stranded RNA substrate, uHTS hits (AID 588481); format: functional
Leucine aminopeptidase = molecular target: T2, Leucine aminopeptidase (Plasmodium falciparum 3D7, UniProt Q8IL11); assay: P. falciparum M17LAP inhibitors, primary screen, biochemical, fluorogenic H-Leu-NHMec substrate, 1536-well (AID 1619); format: functional
T2 sequence (Q8IL11 whole entry): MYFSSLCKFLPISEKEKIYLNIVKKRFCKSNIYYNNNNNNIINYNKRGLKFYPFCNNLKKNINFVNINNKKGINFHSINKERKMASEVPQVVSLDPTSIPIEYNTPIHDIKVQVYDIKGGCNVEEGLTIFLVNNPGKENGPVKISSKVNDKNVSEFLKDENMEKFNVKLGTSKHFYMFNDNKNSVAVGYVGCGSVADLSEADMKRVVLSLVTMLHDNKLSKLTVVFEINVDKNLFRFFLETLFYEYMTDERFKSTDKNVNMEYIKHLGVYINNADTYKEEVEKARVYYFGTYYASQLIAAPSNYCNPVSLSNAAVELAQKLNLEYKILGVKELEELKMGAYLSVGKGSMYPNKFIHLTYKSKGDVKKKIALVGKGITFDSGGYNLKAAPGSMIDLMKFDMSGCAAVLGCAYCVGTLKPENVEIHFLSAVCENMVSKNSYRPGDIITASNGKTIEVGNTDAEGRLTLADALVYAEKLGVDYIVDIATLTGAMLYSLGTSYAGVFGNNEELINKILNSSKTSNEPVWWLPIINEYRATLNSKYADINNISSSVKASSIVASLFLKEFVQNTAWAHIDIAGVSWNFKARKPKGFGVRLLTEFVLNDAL

Large T antigen = Large T antigen (Simian virus 40, UniProt P03070); format: functional, Betapolyomavirus macacae;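 note: Confirmatory-stage PubChem screen for compounds that inhibit SV40 T antigen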
BJ [4] = assay: cells; format: functional, cell-based; conditions: Homo sapiens
[5] = cytotoxicity toward DRD oncogenic fibroblasts, dose response, cell-based, non-viral oncogenic, luminescence (AID 1934); format: functional; conditions: Homo sapiens
BJ [6] = assay: cytotoxicity toward BJ-TERT fibroblasts, dose response, cell-based, RAS-independent, luminescence (AID 1933); format: functional; conditions: Homo sapiens
BJ [7] = assay: cytotoxicity toward BJ-TERT-LT-ST fibroblasts, dose response, cell-based, RAS-independent, luminescence (AID 1935); format: functional; conditions: Homo sapiens;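 note: BJ fibroblasts immortalized with TERT plus LT and ST oncogenes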
cells [8] = format: functional, cell-based
cells [9] = format: functional, cell-based; remark: listed apart in the source
HEK293 [10] = assay: cells; format: functional, cell-based; conditions: Homo sapiens
HEK293 [11] = assay: cells; format: functional, cell-based; conditions: Homo sapiens; remark: listed apart in the source
HEK293 [12] = assay: NOD2 signaling inhibitors in MDP-stimulated cells, cell-based, uHTS, luminescence (AID 2001); format: functional; conditions: Homo sapiens
[13] = molecular target: Heat shock protein HSP 90-alpha (Homo sapiens, UniProt P07900); format: functional, organism-based
[14] = molecular target: T3, Corticotropin-releasing factor receptor 2/Corticotropin-releasing factor-binding protein (Homo sapiens, UniProt P24387+Q13324); assay: activators of CRF receptor 2 with binding protein – uHTS hits, confirmation (AID 602473); format: functional; conditions: read-out: EC50_Mean
T3 sequence (Q13324 whole entry): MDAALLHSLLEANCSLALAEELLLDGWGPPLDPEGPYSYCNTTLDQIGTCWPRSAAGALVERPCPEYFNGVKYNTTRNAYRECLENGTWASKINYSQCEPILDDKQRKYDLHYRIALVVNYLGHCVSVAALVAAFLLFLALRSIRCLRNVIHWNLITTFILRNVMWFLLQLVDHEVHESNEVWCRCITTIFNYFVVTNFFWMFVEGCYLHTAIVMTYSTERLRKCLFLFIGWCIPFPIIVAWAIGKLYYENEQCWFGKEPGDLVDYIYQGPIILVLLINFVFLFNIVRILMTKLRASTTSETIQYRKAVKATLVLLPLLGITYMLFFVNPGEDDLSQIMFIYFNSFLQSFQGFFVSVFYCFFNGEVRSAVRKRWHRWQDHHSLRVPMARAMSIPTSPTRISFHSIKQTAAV
T3 sequence (P24387 whole entry): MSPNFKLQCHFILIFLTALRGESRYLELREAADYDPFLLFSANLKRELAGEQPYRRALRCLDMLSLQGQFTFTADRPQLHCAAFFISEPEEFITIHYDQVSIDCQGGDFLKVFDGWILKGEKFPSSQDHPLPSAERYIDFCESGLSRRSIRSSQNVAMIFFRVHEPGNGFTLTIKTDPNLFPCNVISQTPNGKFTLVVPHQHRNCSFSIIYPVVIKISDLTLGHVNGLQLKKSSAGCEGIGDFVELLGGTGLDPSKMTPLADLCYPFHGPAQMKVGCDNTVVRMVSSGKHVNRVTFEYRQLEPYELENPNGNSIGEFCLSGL

Cytochrome P450 1A2 = molecular target: T4, Cytochrome P450 1A2 (Homo sapiens, UniProt P05177);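 note: PubChem cytochrome P450 panel assay, CYP1A2 panel member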
T4 sequence (P05177 whole entry): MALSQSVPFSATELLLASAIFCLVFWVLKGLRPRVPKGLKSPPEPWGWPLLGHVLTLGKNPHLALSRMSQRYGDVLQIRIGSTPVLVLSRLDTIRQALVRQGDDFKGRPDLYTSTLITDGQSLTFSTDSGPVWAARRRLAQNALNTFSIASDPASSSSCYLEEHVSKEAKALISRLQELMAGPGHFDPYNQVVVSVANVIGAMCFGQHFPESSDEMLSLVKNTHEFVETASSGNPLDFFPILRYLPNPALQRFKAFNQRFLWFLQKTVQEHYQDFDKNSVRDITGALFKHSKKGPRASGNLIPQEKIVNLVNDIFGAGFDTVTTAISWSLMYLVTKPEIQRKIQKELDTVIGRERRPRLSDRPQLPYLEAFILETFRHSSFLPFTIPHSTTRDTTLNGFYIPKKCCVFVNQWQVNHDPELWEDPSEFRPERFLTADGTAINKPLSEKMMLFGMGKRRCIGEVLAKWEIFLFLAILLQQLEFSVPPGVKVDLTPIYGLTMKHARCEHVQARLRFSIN

Genome polyprotein = Genome polyprotein (dengue virus type 2, UniProt P29990); assay: Dengue-2 NS5 methyltransferase inhibitors, primary screen, biochemical, confirmation dose response (AID 588689); format: functional
[15] = molecular target: T5, Zinc finger protein mex-5 (Caenorhabditis elegans, UniProt Q9XUB2); assay: MEX-5/TCR-2 RNA interaction inhibitors, dose response, biochemical, C. elegans, fluorescence polarization (AID 1960)
T5 sequence (Q9XUB2 whole entry): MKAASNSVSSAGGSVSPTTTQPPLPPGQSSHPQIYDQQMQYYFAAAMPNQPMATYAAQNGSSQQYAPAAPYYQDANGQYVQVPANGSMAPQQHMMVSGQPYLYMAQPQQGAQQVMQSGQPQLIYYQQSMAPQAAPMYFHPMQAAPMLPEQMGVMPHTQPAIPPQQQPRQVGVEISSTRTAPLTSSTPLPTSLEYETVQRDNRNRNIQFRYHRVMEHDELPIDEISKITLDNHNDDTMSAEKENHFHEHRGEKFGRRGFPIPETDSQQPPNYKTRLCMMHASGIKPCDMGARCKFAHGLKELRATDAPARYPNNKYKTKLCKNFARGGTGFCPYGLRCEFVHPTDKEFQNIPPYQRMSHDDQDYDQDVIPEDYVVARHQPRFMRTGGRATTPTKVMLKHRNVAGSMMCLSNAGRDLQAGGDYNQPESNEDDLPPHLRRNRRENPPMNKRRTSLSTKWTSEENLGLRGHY

[16] = molecular target: T6, RNA-binding protein pos-1 (Caenorhabditis elegans, UniProt G5EF15); assay: inhibitors of POS-1/mex-3 RNA binding, dose response, biochemical, fluorescence polarization (AID 1964);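 note: purified POS-1 fused to maltose binding protein made in E. coli; potency of compounds blocking POS-1 binding to fluorescent RNA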
T6 sequence (G5EF15 whole entry): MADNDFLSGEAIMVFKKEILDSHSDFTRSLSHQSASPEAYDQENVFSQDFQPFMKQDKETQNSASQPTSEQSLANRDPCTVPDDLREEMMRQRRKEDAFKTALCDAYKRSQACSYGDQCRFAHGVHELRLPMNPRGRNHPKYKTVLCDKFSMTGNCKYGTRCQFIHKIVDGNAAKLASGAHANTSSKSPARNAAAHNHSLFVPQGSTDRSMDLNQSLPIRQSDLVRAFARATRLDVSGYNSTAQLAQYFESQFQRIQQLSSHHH

Large T antigen, sequence (P03070 whole entry): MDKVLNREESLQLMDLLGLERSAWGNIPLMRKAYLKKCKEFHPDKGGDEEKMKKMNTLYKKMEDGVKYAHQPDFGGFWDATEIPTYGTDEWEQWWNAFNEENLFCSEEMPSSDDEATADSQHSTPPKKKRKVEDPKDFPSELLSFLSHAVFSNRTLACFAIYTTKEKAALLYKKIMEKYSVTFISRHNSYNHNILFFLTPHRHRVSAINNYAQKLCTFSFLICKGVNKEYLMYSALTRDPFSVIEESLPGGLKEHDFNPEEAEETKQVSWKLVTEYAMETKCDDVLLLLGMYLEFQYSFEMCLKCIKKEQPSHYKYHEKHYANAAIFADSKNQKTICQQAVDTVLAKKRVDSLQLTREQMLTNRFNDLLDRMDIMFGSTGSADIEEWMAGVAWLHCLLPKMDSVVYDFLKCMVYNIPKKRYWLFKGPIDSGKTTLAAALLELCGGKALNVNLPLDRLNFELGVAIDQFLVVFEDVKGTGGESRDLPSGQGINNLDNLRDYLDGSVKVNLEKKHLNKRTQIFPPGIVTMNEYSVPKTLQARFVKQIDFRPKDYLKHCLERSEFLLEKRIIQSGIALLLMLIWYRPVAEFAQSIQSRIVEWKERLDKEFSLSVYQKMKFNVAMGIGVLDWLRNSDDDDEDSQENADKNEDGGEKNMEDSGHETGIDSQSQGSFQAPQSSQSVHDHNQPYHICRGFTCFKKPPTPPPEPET
Voltage-dependent T-type calcium channel subunit alpha-1H, sequence (O95180 whole entry): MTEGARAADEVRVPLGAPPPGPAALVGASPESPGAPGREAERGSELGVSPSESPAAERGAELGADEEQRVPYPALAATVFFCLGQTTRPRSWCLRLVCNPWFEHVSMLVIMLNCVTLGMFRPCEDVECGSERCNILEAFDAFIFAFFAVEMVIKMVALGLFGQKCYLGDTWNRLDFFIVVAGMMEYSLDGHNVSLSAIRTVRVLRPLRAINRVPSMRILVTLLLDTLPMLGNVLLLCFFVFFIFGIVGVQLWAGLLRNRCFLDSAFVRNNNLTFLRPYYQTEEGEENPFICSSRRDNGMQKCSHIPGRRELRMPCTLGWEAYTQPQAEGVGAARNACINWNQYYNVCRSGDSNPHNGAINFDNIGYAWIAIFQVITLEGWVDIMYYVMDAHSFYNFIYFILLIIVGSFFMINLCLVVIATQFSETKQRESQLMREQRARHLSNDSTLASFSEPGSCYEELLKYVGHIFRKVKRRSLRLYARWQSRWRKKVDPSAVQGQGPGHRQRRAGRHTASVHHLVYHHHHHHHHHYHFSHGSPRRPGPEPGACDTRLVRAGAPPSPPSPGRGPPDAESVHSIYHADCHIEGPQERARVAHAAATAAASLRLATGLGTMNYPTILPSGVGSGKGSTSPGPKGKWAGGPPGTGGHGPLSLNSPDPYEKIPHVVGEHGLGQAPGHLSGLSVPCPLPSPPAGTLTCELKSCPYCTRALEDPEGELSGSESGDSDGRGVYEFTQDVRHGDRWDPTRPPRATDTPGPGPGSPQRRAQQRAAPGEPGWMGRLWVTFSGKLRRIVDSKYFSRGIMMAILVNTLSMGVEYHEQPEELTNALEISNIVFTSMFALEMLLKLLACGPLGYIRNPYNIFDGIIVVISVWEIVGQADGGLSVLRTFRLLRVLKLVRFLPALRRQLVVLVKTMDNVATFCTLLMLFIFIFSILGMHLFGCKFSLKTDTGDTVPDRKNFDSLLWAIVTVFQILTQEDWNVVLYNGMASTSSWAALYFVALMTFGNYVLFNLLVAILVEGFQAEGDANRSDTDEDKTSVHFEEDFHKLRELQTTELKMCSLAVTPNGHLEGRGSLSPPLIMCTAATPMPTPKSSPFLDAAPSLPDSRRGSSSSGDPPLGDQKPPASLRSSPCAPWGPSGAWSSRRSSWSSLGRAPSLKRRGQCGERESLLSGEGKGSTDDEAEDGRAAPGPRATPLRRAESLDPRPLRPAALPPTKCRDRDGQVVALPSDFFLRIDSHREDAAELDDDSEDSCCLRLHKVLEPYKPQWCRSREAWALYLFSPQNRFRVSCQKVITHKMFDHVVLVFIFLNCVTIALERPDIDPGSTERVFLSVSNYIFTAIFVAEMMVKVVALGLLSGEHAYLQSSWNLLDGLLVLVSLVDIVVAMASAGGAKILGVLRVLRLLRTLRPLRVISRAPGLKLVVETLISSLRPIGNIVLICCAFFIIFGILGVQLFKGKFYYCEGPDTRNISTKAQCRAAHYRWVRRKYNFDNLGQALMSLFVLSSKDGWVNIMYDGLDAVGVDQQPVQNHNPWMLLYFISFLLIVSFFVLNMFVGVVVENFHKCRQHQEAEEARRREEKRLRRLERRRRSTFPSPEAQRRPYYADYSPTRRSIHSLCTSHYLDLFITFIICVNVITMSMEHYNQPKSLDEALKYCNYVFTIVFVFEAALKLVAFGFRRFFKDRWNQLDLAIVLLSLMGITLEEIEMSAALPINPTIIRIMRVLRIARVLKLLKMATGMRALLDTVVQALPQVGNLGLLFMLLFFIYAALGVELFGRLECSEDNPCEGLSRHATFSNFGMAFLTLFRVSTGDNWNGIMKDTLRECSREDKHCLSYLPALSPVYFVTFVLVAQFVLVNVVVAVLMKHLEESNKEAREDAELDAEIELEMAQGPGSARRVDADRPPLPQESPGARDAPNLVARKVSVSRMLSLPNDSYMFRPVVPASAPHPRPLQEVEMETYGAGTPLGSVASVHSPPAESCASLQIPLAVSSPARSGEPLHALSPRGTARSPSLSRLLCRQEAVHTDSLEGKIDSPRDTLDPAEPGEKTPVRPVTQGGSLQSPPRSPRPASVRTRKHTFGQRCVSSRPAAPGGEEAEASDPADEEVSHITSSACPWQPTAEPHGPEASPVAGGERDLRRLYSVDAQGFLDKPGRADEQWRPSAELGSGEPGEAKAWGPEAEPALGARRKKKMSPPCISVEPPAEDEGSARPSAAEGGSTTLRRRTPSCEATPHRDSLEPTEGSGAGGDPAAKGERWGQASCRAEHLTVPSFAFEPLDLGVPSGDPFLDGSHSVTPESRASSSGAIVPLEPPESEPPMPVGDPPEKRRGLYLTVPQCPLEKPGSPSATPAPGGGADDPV
Genome polyprotein, sequence (P29990 2492-3391 limits assumed): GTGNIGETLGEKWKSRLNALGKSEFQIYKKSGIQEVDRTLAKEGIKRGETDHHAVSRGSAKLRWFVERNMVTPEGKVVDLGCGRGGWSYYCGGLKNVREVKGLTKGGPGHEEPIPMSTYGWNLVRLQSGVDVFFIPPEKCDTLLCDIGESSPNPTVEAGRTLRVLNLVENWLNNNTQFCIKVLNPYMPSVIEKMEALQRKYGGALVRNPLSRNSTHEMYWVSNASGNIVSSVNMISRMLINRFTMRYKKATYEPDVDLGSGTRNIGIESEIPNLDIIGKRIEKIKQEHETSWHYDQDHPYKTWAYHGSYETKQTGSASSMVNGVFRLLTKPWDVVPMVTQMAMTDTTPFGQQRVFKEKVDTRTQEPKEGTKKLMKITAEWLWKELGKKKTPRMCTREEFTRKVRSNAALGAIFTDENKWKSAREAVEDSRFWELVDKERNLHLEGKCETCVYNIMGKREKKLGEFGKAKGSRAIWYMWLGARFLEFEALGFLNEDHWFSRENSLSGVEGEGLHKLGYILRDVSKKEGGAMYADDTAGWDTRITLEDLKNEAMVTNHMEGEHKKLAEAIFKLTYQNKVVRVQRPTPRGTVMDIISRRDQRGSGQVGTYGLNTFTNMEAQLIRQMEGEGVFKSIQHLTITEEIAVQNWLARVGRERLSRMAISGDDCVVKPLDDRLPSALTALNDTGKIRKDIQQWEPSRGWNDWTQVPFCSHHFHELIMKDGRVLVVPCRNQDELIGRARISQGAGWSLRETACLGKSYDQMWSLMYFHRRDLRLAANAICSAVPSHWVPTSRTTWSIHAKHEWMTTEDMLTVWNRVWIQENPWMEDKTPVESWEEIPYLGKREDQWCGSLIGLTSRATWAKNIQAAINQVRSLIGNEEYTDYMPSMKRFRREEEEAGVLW

Cc1ccc2c(CC(=O)NCC3COc4ccccc4O3)coc2c1 (stereo not given)
EC50 [1]: 0.986 µM (active)

COc1ccc(Br)c(C(=O)OCc2cc(=O)oc3cc(C)ccc23)c1
EC50 [2]: > 99 µM (inactive)
EC50 [3]: > 99 µM (inactive)

Cc1ccc(NC2SC(=O)N(Cc3cccc(C(=O)O)c3)C2=O)cc1 (stereo not given)
IC50 (Leucine aminopeptidase): 6.86 µM (active)

COC(=O)CSc1cc([N+](=O)[O-])cc2c1c(C1OCCO1)nn2-c1ccccc1
EC50 [2]: > 99 µM (inactive)
EC50 [3]: > 99 µM (inactive)

O=C(CCC(=O)N1CCN(c2ccc(O)cc2)CC1)c1cccs1
IC50 (Large T antigen): 5.54 µM (active)

CCCCN1C(=O)/C(=C/C=C/C=C/Nc2ccccc2)SC1=S
EC50 (BJ [4]): 24.6 µM (active)
EC50 [5]: 19.8 µM (active)
EC50 (BJ [6]): 31.6 µM (active)
EC50 (BJ [7]): > 150 µM (not active)

ON=CNc1cccc2nonc12
EC50 (cells [8]): 98.8 µM (active)
EC50 (cells [9]): > 350 µM (not active)

COc1ccccc1N1CCN(C(=O)C2CCCN(S(=O)(=O)c3ccc4c(c3)oc(=O)n4C)C2)CC1 (stereo not given)
IC50 (HEK293 [10]): > 20 µM (inactive)
IC50 (HEK293 [11]): > 20 µM (inactive)
IC50 (HEK293 [12]): > 20 µM (inactive)

O=C(COc1ccccc1)N(Cc1cccc(F)c1)C1CCS(=O)(=O)C1 (stereo not given)
EC50 (cells [8]): > 350 µM (not active)
EC50 (cells [9]): > 350 µM (not active)

N#Cc1c(O)nc(S)nc1-c1ccccc1
IC50 (Leucine aminopeptidase): 15.7 µM (active)

Cc1cc(C)n2nc(C(=O)N/N=C/c3ccc(O)cc3)nc2n1
IC50 (Large T antigen): 43.9 µM (active)

CCOC(=O)c1ccc(N2C(=O)CC(N3CCC(O)(c4ccc(Cl)cc4)CC3)C2=O)cc1 (stereo not given)
AC50 [13]: 2.97 µM (active)

CN1CCN(c2ccc([N+](=O)[O-])cc2C(=O)c2ccccc2)CC1
EC50 (BJ [4]): > 150 µM (not active)
EC50 [5]: > 150 µM (not active)
EC50 (BJ [6]): 39.6 µM (active)
EC50 (BJ [7]): > 150 µM (not active)

CC1=C(C)CC(C(=O)NNC(=O)c2csc3c2CCC(C(C)(C)C)C3)C(C(=O)O)C1 (stereo not given)
IC50 (Leucine aminopeptidase): 8.98 µM (active)

Cc1ccccc1-c1nc(CS(=O)(=O)CC(=O)N(C)C2CCCCC2)c(C)o1
EC50 [1]: 1.26 µM (active)

Nc1c(C(=O)Nc2nccs2)sc2nc(-c3cccs3)cc(C(F)(F)F)c12
EC50 [14]: 2.76 µM (active)
EC50 [2]: > 99 µM (inactive)
EC50 [3]: > 99 µM (inactive)

O=C(/C=C/c1ccc2c(c1)OCO2)Nc1cccnc1
EC50 (cells [8]): 6.64 µM (active)
EC50 (cells [9]): > 350 µM (not active)

CC1CCC2(CC1)NC(=O)N(CC(=O)Nc1ccc(N3CCOCC3)cc1)C2=O (stereo not given)
IC50 (Leucine aminopeptidase): 58.6 µM (active)

Cc1nonc1NC(=O)CSc1nnc(-c2ccoc2C)n1-c1cccc(Cl)c1
EC50 [1]: 7.83 µM (active)

O=C(O)c1nn(Cc2ccc(Cl)cc2Cl)c2ccccc12 [LONIDAMINE]
AC50 (Cytochrome P450 1A2): 39.8 µM (inconclusive)
IC50 (Leucine aminopeptidase): 7.37 µM (active)

NC(=O)COc1ccc(/C=C2\C(=O)ON=C2c2ccccc2)cc1
IC50 (Genome polyprotein): 67.7 µM (active)

Oc1[nH]c2ccccc2c1N=Nc1ccccc1
EC50 [2]: 54.6 µM (inactive)
EC50 [15]: 18.3 µM (inconclusive)
EC50 [3]: > 99 µM (inactive)
EC50 [16]: 7.37 µM (inconclusive)

COc1ccc(N2CCN(C(=O)c3ccc(Br)cc3)CC2)c([N+](=O)[O-])c1
AC50 [13]: 0.691 µM (active)

CN(C)c1ccc(NC(=O)CSc2nnc(-c3ccco3)c(-c3ccco3)n2)cc1
IC50 (Large T antigen): 6.98 µM (active)

COc1ccc(CSCC(=O)Nc2ccc(S(=O)(=O)N3CCCCCC3)cc2)cc1
EC50 (cells [8]): > 350 µM (not active)
EC50 (cells [9]): > 350 µM (not active)

O=C(CSCC(=O)N1CCCCC1)Nc1nc(-c2cccs2)cs1
EC50 [1]: 0.595 µM (active)

CCCn1/c(=N/C(=O)c2c(-c3c(F)cccc3Cl)noc2C)c(C(=O)OCC)cc2c(=O)n3ccccc3nc21
EC50 (cells [8]): > 350 µM (not active)
EC50 (cells [9]): > 350 µM (not active)

O=C(CCS(=O)(=O)c1ccc(Br)cc1)N1CCN(c2ccccc2Cl)CC1
EC50 [1]: 4.8 µM (active)

O=[N+]([O-])c1ccc([S+]([O-])Cc2ccccc2)c([N+](=O)[O-])c1 (stereo not given)
AC50 [13]: 2.17 µM (active)

From ChEMBL document CHEMBL1201862, “PubChem BioAssay data set” (2004)
